Data published in patent publication US20240358015A1, “HERBICIDAL COMPOSITIONS” (Agrematch Ltd., priority 2021, published 2024).

Assays:
E. colonum = assay: Growth-chamber post-emergence assay on various weed species (Example 7); format: in vivo, Echinochloa colonum; conditions: 1500 g/ha; 0.8% MIPA, 0.25% Genapol, 2% HASTEN, 0.05% Break-Thru
Description: (§1) Herbicidal activity of Compound 1 was determined by post-emergence application on various weed species. 8-14 day old plants (weeds) were grown at 16 hours/8 hours day/night cycles at 30° C./25° C., respectively. Leaf stage was typically 2-6.
(§2) In each treatment, 3 pots (either 7×7 or 8×12 cm), containing about 3-6 plants each, were sprayed using a VL-SET Paasche Airbrush with a 1-1.5 ml-solution containing 0.5-1.5 mg/ml of the tested compound, which is equivalent to about 500-1500 g/ha.
(§3) Damage assessment: Herbicidal activity was assessed and scored 3-4 days after application by visual inspection of the plants in comparison to plants treated with the formulation alone (with no active ingredient) as control. Activity score is in the range of 0 to 100, where 0 represents no herbicidal activity like control plants and 100 represents the maximal herbicidal activity (i.e., total death of the plant).

B. cinerea = assay: PDA plate fungicidal assay (Example 4); format: cell-based, Botrytis cinerea; conditions: average of two plates
Description: Compound 1 was dissolved in 0.05 M Tris buffer pH=8 to a concentration of 4 mg/ml, and then diluted with a sterile PDA solution to final concentrations of 40 and 400 μg/ml. 10 ml of each solution were poured to a 100 mm petri dish and left to cool down. A 0.5 cm diameter agar disc inoculated with 3-day old B. cinerea hypha was placed upside down in the center of each PDA plate. Each treatment contained two repeats (two plates). Plates were incubated at 21° C. for 4 days. Fungicidal activity was scored by measuring the radial growth area of the hypha. Results were recorded 2-4 days after inoculation (DAI). % growth inhibition was calculated relative to control treatment without Compound 1.

X. strumarium = assay: Growth-chamber post-emergence assay on various weed species (Example 7); format: in vivo, Xanthium strumarium; conditions: 1500 g/ha; 0.8% MIPA, 0.25% Genapol, 2% HASTEN, 0.05% Break-Thru
Description: as §1, §2, §3

L. multiflorum = assay: as above; format: in vivo, Lolium multiflorum; conditions: 1500 g/ha; 0.8% MIPA, 0.25% Genapol, 2% HASTEN, 0.05% Break-Thru
Description: as §1, §2, §3

[1] = test system: Resistant A. rudis (target-site resistant to HRAC class 5); assay: Growth-chamber assay with resistant weeds (Example 9); format: in vivo, Amaranthus rudis; conditions: 2,000 g/ha, 4-5 days after application, scale 0-100
Description: (§4) Herbicidal activity of Compound 1 was determined by post-emergence application in both Growth-chamber and Net-house conditions. Growing conditions were as described in Examples 6 and 8 above.
(§5) The assay was performed on 9-11 day old plants (weeds) of Amaranthus rudis that were either target-site resistant or sensitive to HRAC class 5. In each treatment, between 1 to 3 pots (8×12 cm), containing about 6 Amaranthus Rudis plants, were sprayed using a VL-SET Paasche Airbrush with a 1 ml-solution.
as §3, with “4-5” for “3-4”

Sensitive A. rudis = assay: as above; format: in vivo, Amaranthus rudis; conditions: 2,000 g/ha, 4-5 days after application, scale 0-100
Description: as §4, §5
as §3, with “4-5” for “3-4”

S. nigrum = assay: Growth-chamber post-emergence assay on various weed species (Example 7); format: in vivo, Solanum nigrum; conditions: 0.05% Break-Thru
Description: as §1, §2, §3

D. ferox = assay: as above; format: in vivo; conditions: 1500 g/ha; 0.8% MIPA, 0.25% Genapol, 2% HASTEN, 0.05% Break-Thru
Description: as §1, §2, §3

S. alba = assay: as above; format: in vivo; conditions: 500 g/ha; 0.8% MIPA, 0.25% Genapol, 1% AGNIQUE, 0.05% Ca-LAS, 0.02% BSU, 0.05% Break-Thru
Description: as §1, §2, §3

A. retroflexus = assay: as above; format: in vivo; conditions: 500 g/ha; 0.8% MIPA, 0.25% Genapol, 1% AGNIQUE, 0.05% Ca-LAS, 0.02% BSU, 0.05% Break-Thru
Description: as §1, §2, §3

T. vulgare = assay: as above; format: in vivo; conditions: 500 g/ha; 0.8% MIPA, 0.25% Genapol, 1% AGNIQUE, 0.05% Ca-LAS, 0.02% BSU, 0.05% Break-Thru
Description: as §1, §2, §3

A. palmeri = assay: as above; format: in vivo, Amaranthus palmeri; conditions: 0.05% Break-Thru, 3-4 days after application
Description: as §1, §2, §3

[2] = 750 g/ha, 0.2% MIPA, 2% TWEEN20, 1% AGNIQUE, 0.05% Ca-LAS, 0.02% BSU
[3] = 1500 g/ha, 0.8% MIPA, 0.25% Genapol, 2% HASTEN

`O=C(O)c1cc(O)c2c(c1)C(=O)c1cccc(O)c1C2=O` [Compound 1, Rhein] was tested, and the Herbicidal activity score (E. colonum) was 90, the “% growth inhibition (radial growth area of the hypha, relative to control)” value (B. cinerea; 40 μg/ml in PDA, 2 DAI) was 61% and the “% growth inhibition (radial growth area of the hypha, relative to control)” value (B. cinerea; 40 μg/ml in PDA, 3 DAI) was 82%. The “% growth inhibition (radial growth area of the hypha, relative to control)” value (B. cinerea; 40 μg/ml in PDA, 4 DAI) was 86%, the “% growth inhibition (radial growth area of the hypha, relative to control)” value (B. cinerea; 400 μg/ml in PDA, 2 DAI) was 82% and the “% growth inhibition (radial growth area of the hypha, relative to control)” value (B. cinerea; 400 μg/ml in PDA, 3 DAI) was 88%. For the same compound, the “% growth inhibition (radial growth area of the hypha, relative to control)” value (B. cinerea; 400 μg/ml in PDA, 4 DAI) was 83%, the Herbicidal activity score (X. strumarium) was 90 and the Herbicidal activity score (L. multiflorum) was 50. The Herbicidal activity score [1] was 100, the Herbicidal activity score (Sensitive A. rudis) was 100 and the Herbicidal activity score (S. nigrum; [2]) was 95. It also gave a Herbicidal activity score (S. nigrum; [3]) of 100, a Herbicidal activity score (D. ferox) of 95 and a Herbicidal activity score (S. alba) of 80. The Herbicidal activity score (A. retroflexus) was 85, the Herbicidal activity score (T. vulgare) was 10 and the Herbicidal activity score (A. palmeri; 500 g/ha, 0.8% MIPA, 0.25% Genapol, 1% AGNIQUE, 0.05% Ca-LAS, 0.02% BSU, scale 0-100) was 100. For the same compound, the Herbicidal activity score (A. palmeri; [2]) was 100 and the Herbicidal activity score (A. palmeri; [3]) was 100.
